Values quoted from earlier work in patent US20240294453A1, “Deuterated agonists and methods of use” (priority 2018, published 2024).

System: subjects with schizophrenia
[1] = 5 mg or 50 mg orally once daily, 24 weeks

## O=C(N[C@@H]1C2CCN(CC2)[C@H]1Cc1cccnc1)c1cc2ccccc2o1 [TC-5619]
[1]
  scores of CSB, UPSA-B, PANSS, CGI-I, CGI-S, or SGI-Cog vs placebo, P (none favored TC-5619): > 0.05
  tolerability: generally well tolerated
5 mg, week 24
  SANS score vs placebo, 2-tailed P: 0.159
Tobacco users, no concordance by dose, country, gender
  benefit in some outcome measures in tobacco users: Sporadic statistical benefit
Week 24, orally once daily, 5 mg or 50 mg, added to a new-generation antipsychotic
  Scale for the Assessment of Negative Symptoms (SANS) composite score, benefit vs placebo: no statistical benefit
